Experiments:
ARPE-19 cells [1] = test: t-BHP-induced injury in ARPE-19 cells (MTT); format: cell-based, human; settings: 0.03 μg/ml to 10 µg/ml, 12 h
Procedure: (§1) MTT assay was used to measure the viability of ARPE-19 cells and HUVECs. 2×10^5 ARPE-19 cells or 5×10^4 HUVECs were seeded in 96-well plates ([…]) and allowed to grow overnight. Negative control was prepared by adding 100 μl medium without cells. The cells were then treated with fresh medium with COMPOUND I (0.03, 0.1, 0.3, 1, 3 and 10 μg/ml) and/or oxidants (NaIO3, H2O2, t-BHP and NaN3) for 12, 24, or 72 hours (200 μl/well). The vehicle control group was treated with vehicle. 20 μl MTT (5 mg/ml) was added to wells, and incubated for another 4 h. After incubation, the medium was discarded and 100 μl DMSO was added to solubilize formazan produced from MTT by the viable cells. Absorbance was measured at 570 nm using a microplate reader (Bio-Rad Laboratories, Inc., CA). Cells viability was calculated according to the following formula: Viability of cells (%)=(absorbance in tested sample−absorbance in negative control)/(absorbance in vehicle control−absorbance in negative control)×100%.

HUVECs [2] = test: NaIO3-induced injury in HUVECs (MTT); format: cell-based, human; settings: 72 h
Procedure: as §1

[3] = system: Rabbit with Experimental Ocular Hypertension; test: Ocular blood flow (colored microspheres) in rabbit with experimental ocular hypertension; format: in vivo, New Zealand white rabbits; settings: 1% topical, 50 μl
Procedure: Rabbits were anesthetized with 35 mg/kg ketamine and 5 mg/kg Balanzine (10% xylazine) by intramuscular injection. Half of the initial dose was given every one hour thereafter. The left ventricle was cannulated through the right carotid artery for injection of colored microspheres and the femoral artery was cannulated for collection of blood samples. The left eye was treated with one drop of proparacaine hydrochloride ophthalmic solution (Bausch & Lomb, Inc., Tampa, Fla., USA). The needle was inserted directly into the anterior chamber of the left eye, which was connected to the 40 mmHg saline manometer. The ocular hypertensive model reduced the ocular blood flow to approximately one third of the normal valued. […] The ocular blood flow was measured by colored microspheres at 0, 30, 60 and 120 minutes after treatment with COMPOUND I or vehicle. […] The blood sample was collected in a heparinized tube and the volume was recorded. […]
The details of sample processing and microspheres counting were provided by E-Z Trac (Los Angeles, Calif., USA). […] The number of microspheres was counted by the hemocytometer under the microscope. […] The protocol thereafter was the same as that used to process the blood samples, and the microspheres were counted.
The blood flow of each tissue at a certain time point was calculated according to the following formula: Qm=(Cm×Qt)/Cr. […]

ARPE-19 cells [4] = test: NaN3-induced injury in ARPE-19 cells (MTT); format: cell-based, human; settings: 72 h
Procedure: as §1

HUVECs [5] = test: NaN3-induced injury in HUVECs (MTT); format: cell-based, human; settings: 72 h
Procedure: as §1

ARPE-19 cells [6] = test: H2O2-induced injury in ARPE-19 cells (MTT); format: cell-based, human; settings: 3 μg/ml and 10 μg/ml; 400, M and 600 μM H2O2; 24 h
Procedure: as §1

ARPE-19 cells [7] = test: NaIO3-induced injury in ARPE-19 cells (MTT); format: cell-based, human; settings: 10 μg/ml; 72 h
Procedure: as §1

HUVECs [8] = test: t-BHP-induced injury in HUVECs (MTT); format: cell-based, human; settings: 12 h; for reversal of t-BHP-induced injury: 200 I-M t-BHP; for enhancement of t-BHP-induced injury: 10 μg/ml
Procedure: as §1

VEGF = VEGF levels in retina, Western Blot, streptozotocin-induced diabetic retinopathy; format: in vivo, Sprague-Dawley female rats
ARPE-19 cells [9] = test: Hypoxia-induced injury in ARPE-19 cells (MTT); format: cell-based, human; settings: 72 h
Procedure: as §1
Cells were allowed to attach overnight, and then exposed to COMPOUND I or vehicle under hypoxic condition for 72 h. Hypoxic conditions (1% O2, 5% CO2 and 94% N2) were maintained by using a temperature and humidity controlled environmental C-chamber by O2 and CO2 controllers (Proox Model 110 and Pro CO2 model 120, Biospherix Ltd., Redfield, N.Y., USA) with N2 and CO2 gas sources.

COc1ccc(COc2c(/C=C/C(=O)NO)ccc(OC)c2CC=C(C)C)cc1 [COMPOUND I]
effect on 200 μM t-BHP-induced injury (ARPE-19 cells [1]): reversed | effect on 300 μg/ml NaIO3-induced injury (HUVECs [2]; 0.03 μg/ml to 1 μg/ml, 300 μg/ml NaIO3): reversed | effect on viability in NaIO3-induced injury (HUVECs [2]; 10 μg/ml): significantly enhanced the viability | blood flow in ciliary body and choroid ([3]; 30 minutes and 60 minutes after instillation): markedly increased | blood flow in all tissues (iris, ciliary body, retina, choroid) ([3]; 120 minutes after instillation): significantly increased | effect on NaN3-induced injury (ARPE-19 cells [4]): significantly reversed | enhancement of NaN3-induced injury (HUVECs [5]; 10 µg/ml, 3 mM NaN3): 72% | effect on NaN3-induced injury (HUVECs [5]; From 0.03 μg/ml): didn't affect | enhancement of NaN3-induced injury (HUVECs [5]; […], 0.3 mM NaN3): 65% | enhancement of NaN3-induced injury (HUVECs [5]; […], 1 mM NaN3): 52% | effect on H2O2-induced injuries (ARPE-19 cells [6]): reversed | effect on viability in NaIO3-induced injury (ARPE-19 cells [7]): significantly enhanced the viability | reversal of t-BHP-induced injury (HUVECs [8]; 1 μg/ml): 26% | reversal of t-BHP-induced injury (HUVECs [8]; 3 μg/ml): 28% | enhancement of t-BHP-induced injury (HUVECs [8]; 50 μM t-BHP): 40% | enhancement of t-BHP-induced injury (HUVECs [8]; 100 μM t-BHP): 20% | enhancement of t-BHP-induced injury (HUVECs [8]; 200 μM t-BHP): 51% | VEGF level in diabetic eyes, in words (VEGF; 0.5% and 1%): markedly suppressed | VEGF level (Western Blot), DR animals as 100% (VEGF; 0.5% eye drops tid 6 weeks): 77% | VEGF level (Western Blot), DR rats as 100% (VEGF; 1.0% eye drops tid 6 weeks): 50% | effect on cells in hypoxic condition (ARPE-19 cells [9]; 0.03 μg/ml to 10 μg/ml except 3 μg/ml): had no effect | increase of viability in hypoxic condition (ARPE-19 cells [9]; 3 μg/ml, 1% O2): 22%

From US11045435B2, “Methods for treating ocular diseases” (NATUREWISE BIOTECH & MEDICALS CORPORATION, priority 2016, dated 2021)
